The results in this text go back to PMC9121578, “Celastrol mitigates inflammation in sepsis by inhibiting the PKM2-dependent Warburg effect” (Military Medical Research, 2022).

Holding throughout (type): binding
The target of assay [1] is T1, PKM2 (pyruvate kinase M2) (Homo sapiens, UniProt P14618).
T1 construct: gene PKM; recombinant, pET28a, E. coli BL21, Ni-NTA purified; full length implied
The assay can be described thus: surface plasmon resonance, CM5 chip, steady-state […]. (In general: Surface plasmon resonance follows binding to a sensor surface in real time, without labels.)

Assay [2] deals with T2, HMGB1 (high mobility group box 1) (Homo sapiens, UniProt P09429).
T2 construct: recombinant full length, pET-24d, E. coli BL21, Ni-NTA purified; a recombinant human HMGB1 was also bought from Abcam
T2 sequence (P09429 1-215): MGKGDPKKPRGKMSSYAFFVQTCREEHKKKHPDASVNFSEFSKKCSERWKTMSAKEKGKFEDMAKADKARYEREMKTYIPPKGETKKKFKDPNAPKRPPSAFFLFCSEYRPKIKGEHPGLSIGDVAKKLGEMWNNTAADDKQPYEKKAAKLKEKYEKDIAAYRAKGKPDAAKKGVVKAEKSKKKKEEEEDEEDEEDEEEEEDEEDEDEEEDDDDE
The assay is described as above.

Assay [3] addresses T3, LDHA (lactate dehydrogenase A) (Homo sapiens, UniProt P00338).
T3 construct: recombinant human LDHA obtained from Abcam
The description is as above.

The target in another assay is T4, HMGB1 B box (Homo sapiens, UniProt P09429).
T4 construct: B box domain (contains Cys106)
T4 sequence (P09429 95-163 limits assumed): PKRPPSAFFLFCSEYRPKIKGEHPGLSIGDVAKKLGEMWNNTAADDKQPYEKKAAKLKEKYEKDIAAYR
The assay can be described thus: UV-visible absorption; competition with Cel-P labelling. Conditions: 100 μmol/L Cel; covalent.

Assay [4] concerns the target T1, PKM2 (pyruvate kinase M2). The assay can be described thus: probe labelling, click chemistry, in-gel fluorescence. The note with it: room temperature; PBS; covalent.
Assay [5] addresses T2, HMGB1 (high mobility group box 1). Described as above. The note with it: room temperature; PBS; covalent.

By Kd is commonly meant a measure of binding affinity in units of concentration. Low values mean higher affinity, high ones lower affinity.

SMILES strings stand for the structures.

T1 sequence (P14618 2-531): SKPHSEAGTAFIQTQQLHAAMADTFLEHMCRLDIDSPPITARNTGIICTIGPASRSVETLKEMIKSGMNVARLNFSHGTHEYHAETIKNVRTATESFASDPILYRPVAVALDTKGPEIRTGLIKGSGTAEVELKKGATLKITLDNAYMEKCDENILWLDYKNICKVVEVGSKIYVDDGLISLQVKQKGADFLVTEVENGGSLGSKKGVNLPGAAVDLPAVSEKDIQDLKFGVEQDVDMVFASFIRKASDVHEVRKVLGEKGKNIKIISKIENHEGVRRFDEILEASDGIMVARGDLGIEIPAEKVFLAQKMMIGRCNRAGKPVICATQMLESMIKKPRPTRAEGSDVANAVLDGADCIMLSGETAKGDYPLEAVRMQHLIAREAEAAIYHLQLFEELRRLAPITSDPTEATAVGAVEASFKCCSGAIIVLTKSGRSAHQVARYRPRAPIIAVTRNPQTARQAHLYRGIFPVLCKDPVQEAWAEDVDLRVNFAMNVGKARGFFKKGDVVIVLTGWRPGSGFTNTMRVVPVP

As to `CC1=C(O)C(=O)C=C2C1=CC=C1[C@@]2(C)CC[C@@]2(C)[C@@H]3C[C@](C)(C(=O)O)CC[C@]3(C)CC[C@]12C` [Cel, Celastrol], the figures for the Kd in assay [1], in assay [2] and in assay [3] were 635 µM, 4.44 µM and 562 µM, respectively. The “UV-visible absorption; competition with Cel-P labelling” value at HMGB1 B box is reported as “UV–visible absorption by Cel decreased upon mixing with the B box domain”.

For `C#CCNC(=O)[C@]1(C)CC[C@]2(C)CC[C@]3(C)C4=CC=C5C(=CC(=O)C(O)=C5C)[C@]4(C)CC[C@@]3(C)[C@@H]2C1` [Cel-P, celastrol-probe], the figures for the “probe labelling, click chemistry, in-gel fluorescence” value in assay [4] and in assay [5] were “These proteins were labeled with Cel-P in a dose-dependent manner” and “Cel-P labeled recombinant human HMGB1 (Fig. 6c)”, respectively.
